For data set [1], the system named is Staphylococcus aureus. Kind of data set: Antimicrobial activity against quinolone-resistant Staphylococcus aureus MS5935 by micro broth dilution or agar based method. The data set is classed as functional. (In general: In broth dilution the organism is exposed to a series of concentrations in liquid medium.)
The test system of data set [2] is Staphylococcus aureus. The data set is described as follows: Potency index, ratio of MIC for quinolone-resistant Staphylococcus aureus MS5935 to MIC for quinolone-[…]. The class given is functional.
For data set [3], the system named is Staphylococcus aureus. The data set is described as follows: Antimicrobial activity against quinolone-sensitive Staphylococcus aureus MS5935 by micro broth dilution or agar based method.
In data set [4] the test system is Escherichia coli. Kind of data set: Antimicrobial activity against Escherichia coli ATCC 25922 by micro broth dilution or agar based method. The class given is functional. The following applies: Escherichia coli, ATCC 25922; read-out: MIC.
The subject of data set [5] is Streptococcus pneumoniae. The data set is described as follows: Antimicrobial activity against Streptococcus pneumoniae IID553 by micro broth dilution or agar based method. The data set is classed as functional. Conditions: Streptococcus pneumoniae, IID553; read-out: MIC.
For data set [6], the system named is Enterococcus faecium. Kind of data set: Antimicrobial activity against VanA expressing vancomycin-resistant Enterococcus faecium by micro broth dilution or agar based method. Conditions: Enterococcus faecium; read-out: MIC. The data set is classed as functional.
Data set [7] has as its system Pseudomonas aeruginosa. Kind of data set: Antimicrobial activity against Pseudomonas aeruginosa PAO1 by micro broth dilution or agar based method. The class given is functional. Conditions: Pseudomonas aeruginosa, PAO1; read-out: MIC.
Data set [8] deals with Acinetobacter baumannii. Kind of data set: Antimicrobial activity against Acinetobacter baumannii IID876 by micro broth dilution or agar based method. The data set is classed as functional. The following applies: Acinetobacter baumannii, IID876; read-out: MIC.
Data set [9] concerns Staphylococcus aureus. The data set is described as follows: Antimicrobial activity against methicillin-resistant Staphylococcus aureus OIT971 by micro broth dilution or agar based method. The data set is classed as functional.
The subject of data set [10] is Staphylococcus aureus. Kind of data set: Antimicrobial activity against Staphylococcus aureus Smith by micro broth dilution or agar based method. The data set is classed as functional. Conditions: Staphylococcus aureus, Smith; read-out: MIC.
The nature of data set [11]: Oral bioavailability in C57BL/6 mouse at 10 mg/kg. The class given is ADME, organism-based. Conditions: in vivo.
Data set [12] concerns Staphylococcus aureus. The data set is described as follows: Antimicrobial activity against Staphylococcus aureus in iv dosed mouse bacteremia survival model. The class given is functional.
Data set [13] deals with Staphylococcus aureus. The data set is described as follows: Antimicrobial activity against Staphylococcus aureus in orally dosed mouse bacteremia survival model. The class given is functional. The following applies: po.
A short description of data set [14]: Plasma clearance in C57BL/6 mouse at 1 mg/kg, iv or 10 mg/kg, po. The data set is classed as ADME, organism-based.
Data set [15] is described as follows: Half life in C57BL/6 mouse at 1 mg/kg, iv or 10 mg/kg, po. The class given is ADME, organism-based. Conditions: in vivo.
A short description of data set [16]: Volume of distribution at steady state in C57BL/6 mouse at 1 mg/kg, iv or 10 mg/kg, po. The class given is ADME, organism-based. The following applies: in vivo, read-out: Vdss.
The subject of data set [17] is Mus musculus. The data set is described as follows: Dose normalized AUC in C57BL/6 mouse at 1 mg/kg, iv. The class given is ADME, organism-based. Details: dose 1 mg/kg, route intravenous. The following applies: in vivo.
In data set [18] the target is Voltage-gated inwardly rectifying potassium channel KCNH2 (Homo sapiens, UniProt Q12809). The data set is described as follows: Inhibition of MK499 binding to human ERG.

Converted amounts (≈) assume the structure as drawn. Where only a bound is given, the exact number is not on record here.

Voltage-gated inwardly rectifying potassium channel KCNH2, sequence (Q12809 whole entry): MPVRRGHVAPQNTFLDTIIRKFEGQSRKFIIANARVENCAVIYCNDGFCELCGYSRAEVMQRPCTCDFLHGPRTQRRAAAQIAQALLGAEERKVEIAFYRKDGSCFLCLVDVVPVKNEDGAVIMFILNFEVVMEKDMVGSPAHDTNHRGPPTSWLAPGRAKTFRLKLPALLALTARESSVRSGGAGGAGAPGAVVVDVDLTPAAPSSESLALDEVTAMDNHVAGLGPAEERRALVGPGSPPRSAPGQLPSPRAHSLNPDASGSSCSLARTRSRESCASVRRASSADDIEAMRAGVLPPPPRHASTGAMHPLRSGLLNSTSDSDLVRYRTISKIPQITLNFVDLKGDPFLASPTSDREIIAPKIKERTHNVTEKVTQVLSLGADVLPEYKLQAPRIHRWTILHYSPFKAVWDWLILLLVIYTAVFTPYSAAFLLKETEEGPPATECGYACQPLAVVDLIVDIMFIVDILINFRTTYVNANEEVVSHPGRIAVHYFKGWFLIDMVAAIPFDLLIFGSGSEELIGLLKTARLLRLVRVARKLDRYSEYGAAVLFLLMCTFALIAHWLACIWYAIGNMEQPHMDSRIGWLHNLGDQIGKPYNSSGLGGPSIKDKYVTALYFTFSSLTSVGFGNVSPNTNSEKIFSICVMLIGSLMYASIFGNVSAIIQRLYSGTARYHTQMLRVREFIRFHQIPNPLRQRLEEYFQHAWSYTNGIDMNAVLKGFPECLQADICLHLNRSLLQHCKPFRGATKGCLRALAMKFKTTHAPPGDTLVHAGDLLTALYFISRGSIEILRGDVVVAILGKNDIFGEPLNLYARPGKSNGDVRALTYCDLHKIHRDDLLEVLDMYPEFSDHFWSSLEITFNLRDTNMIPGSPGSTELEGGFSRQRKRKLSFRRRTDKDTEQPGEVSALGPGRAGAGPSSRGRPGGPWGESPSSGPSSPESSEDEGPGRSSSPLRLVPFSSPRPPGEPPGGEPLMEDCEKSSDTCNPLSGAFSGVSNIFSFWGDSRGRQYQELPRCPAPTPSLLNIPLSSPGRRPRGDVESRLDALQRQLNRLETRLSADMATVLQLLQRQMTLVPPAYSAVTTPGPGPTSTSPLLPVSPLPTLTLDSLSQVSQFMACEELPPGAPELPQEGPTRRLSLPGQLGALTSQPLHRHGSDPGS

A word on the MIC: it is the least concentration at which growth counts as inhibited. With `C[C@H]1COc2c(N3CCN(C)CC3)c(F)cc3c(=O)c(C(=O)O)cn1c23.C[C@H]1COc2c(N3CCN(C)CC3)c(F)cc3c(=O)c(C(=O)O)cn1c23.O` [LEVOFLOXACIN], the MIC in data set [1] is > 16 µg/mL; in data set [3] it was 0.25 µg/mL. Moreover, the Ratio in data set [2] was >64.

Broadly, the bioavailability is the share of a dose that reaches the circulation, judged against a reference dose that is usually intravenous. Higher therefore signals good availability. On to `COc1ccc2ncc(F)c(CCC34CCC(NCc5ccc6c(n5)NC(=O)CO6)(CC3)CO4)c2n1`, for which the minimum inhibitory concentration (MIC) in data set [4] was determined as 1 µg/mL (≈ 2.03 µM); in [5], 0.125 µg/mL (≈ 0.253 µM); in data set [6] it was 0.5 µg/mL (≈ 1.01 µM); in data set [7], 4 µg/mL (≈ 8.1 µM); in data set [8] it was 0.5 µg/mL (≈ 1.01 µM); in [9], 0.008 µg/mL (≈ 0.0162 µM). Also, the minimal inhibitory concentration (MIC) in [10] was 0.016 µg/mL (≈ 0.0324 µM). Moreover, in [11], the bioavailability came to 71%.

For orientation: ED50 means the dose that gives a 50% effect, or the effect in half of the subjects. Read a high ED50 as a need for a large dose. Regarding `COc1ccc2ncc(C#N)c(CCC34CCC(NCc5ccc6c(n5)NC(=O)CO6)(CC3)CO4)c2n1.Cl`, the median effective dose (ED50) in data set [12] was found to be 8.6 mg/kg; in [13], 9.6 mg/kg.

With `COc1ccc2nccc(CCC34CCC(NCc5ccc6c(n5)NC(=O)CO6)(CC3)CO4)c2n1.Cl`, the 50% effective dose (ED50) in data set [12] was 7.2 mg/kg; in [13], > 50 mg/kg.

One may read the half-life as the time in which the quantity being followed falls by half. In the case of `COc1ccc2nccc(CCC34CCC(NCc5ccc6c(n5)NC(=O)CO6)(CC3)CO4)c2n1`, the minimal inhibitory concentration (MIC) in [4] stood at 2 µg/mL (≈ 4.21 µM); in [5], 0.5 µg/mL (≈ 1.05 µM); in [6], 1 µg/mL (≈ 2.1 µM); in data set [7] it was 8 µg/mL (≈ 16.8 µM); in data set [8], 2 µg/mL (≈ 4.21 µM); in [9] it was 0.031 µg/mL (≈ 0.0652 µM). In data set [10], the MIC was 0.031 µg/mL (≈ 0.0652 µM). In [14], this compound returned a clearance of 40.8 mL/min/kg. Besides, the half-life in [15] was 7.97 h. For the same compound, the Vd in data set [16] turned out to be 5.95 L/kg. This compound had a bioavailability in data set [11] of 30.4%. The compound also gave an AUC/dose in [17] of 0.86 µM·h/mg/kg.

As usually defined, the IC50 is the point on the concentration scale where inhibition reaches its midpoint. A higher IC50 goes with weaker potency in that assay. On to `CN(C)c1cnc2c(CCC34CCC(NCc5ccc6c(n5)NC(=O)CO6)(CC3)CO4)c(F)cnc2c1`, for which the MIC in data set [4], in data set [5], in [6], in [7], in data set [8] and in data set [9] was 16 µg/mL (≈ 31.6 µM) each time. Besides, in data set [10], the MIC is 16 µg/mL (≈ 31.6 µM). For the same compound, the Ratio in [2] is <4. Further, in data set [18], the 50% inhibitory concentration (IC50) is 18.4 µM.

Consider `Cc1cc(S(C)(=O)=O)nc2c(CCC34CCC(NCc5ccc6c(n5)NC(=O)CO6)(CC3)CO4)c(F)cnc12`, for which the MIC in data set [4] was 8 µg/mL (≈ 14.4 µM); in [5], 4 µg/mL (≈ 7.2 µM); in data set [6], 4 µg/mL (≈ 7.2 µM); in [7] it was 32 µg/mL (≈ 57.6 µM); in data set [8], 2 µg/mL (≈ 3.6 µM); in data set [9], 0.125 µg/mL (≈ 0.225 µM). Also, the MIC in [10] was 0.125 µg/mL (≈ 0.225 µM). The Ratio in data set [2] was <4. For the same compound, in data set [18], the IC50 was determined as 12.4 µM.

`COc1ccc2ncc(Cl)c(CCC34CCC(NCc5ccc6c(n5)NC(=O)CO6)(CC3)CO4)c2n1.Cl`: the ED50 is 17 mg/kg in [12] and > 50 mg/kg in [13].

Take `COc1ccc2ncc(C#N)c(CC(O)C34CCC(NCc5ccc6c(n5)NC(=O)CO6)(CC3)CO4)c2n1.Cl` (stereo not given): the median effective dose (ED50) came to 5.1 mg/kg in data set [12] and 6.7 mg/kg in data set [13].

`CCOc1cc(C)c2ncc(F)c(CCC34CCC(NCc5ccc6c(n5)NC(=O)CO6)(CC3)CO4)c2n1`: the minimal inhibitory concentration (MIC) came out at 8 µg/mL (≈ 15.3 µM) in data set [4]; 1 µg/mL (≈ 1.92 µM) in data set [5]; 4 µg/mL (≈ 7.67 µM) in data set [6]; 32 µg/mL (≈ 61.4 µM) in data set [7]; 4 µg/mL (≈ 7.67 µM) in data set [8]; 0.031 µg/mL (≈ 0.0594 µM) in data set [9]. Moreover, the MIC in data set [10] worked out at 0.063 µg/mL (≈ 0.121 µM). In addition, in data set [2], the Ratio was <4. Moreover, in data set [18], the concentration for half-maximal inhibition (IC50) worked out at 1.19 µM.

Turning to `Cl.N#Cc1ccc2ncc(F)c(CCC34CCC(NCc5ccc6c(n5)NC(=O)CO6)(CC3)CO4)c2n1`, the ED50 came out at 20 mg/kg in [12] and 17 mg/kg in data set [13].

These data come from ChEMBL document CHEMBL3421558, “Structure activity relationship of substituted 1,5-naphthyridine analogs of oxabicyclooctane-linked novel bacterial topoisomerase inhibitors as broad-spectrum antibacterial agents (Part-4)” (Bioorg Med Chem Lett, 2015).
